# Test results published in ChEMBL document CHEMBL1123331, “Synthesis of pyrimidin-2-one nucleosides as acid-stable inhibitors of cytidine deaminase” (J Med Chem, 1986).
# Biological target: Cytidine deaminase (Mus musculus, UniProt P56389)
# Assay: Compound was tested for the inhibitory constant for mouse kidney cytidine deaminase
# Sequence of Cytidine deaminase (P56389 whole entry): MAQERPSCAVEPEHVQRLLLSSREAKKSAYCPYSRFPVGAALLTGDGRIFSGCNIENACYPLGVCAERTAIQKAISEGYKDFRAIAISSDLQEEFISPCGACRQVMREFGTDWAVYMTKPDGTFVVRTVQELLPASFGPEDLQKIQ
row,Structure (SMILES),Ki
1,O=C1NCC=CN1[C@@H]1O[C@H](CO)[C@@H](O)[C@H]1O,4 µM
2,O=c1nc(CO)ccn1C1O[C@H](CO)[C@@H](O)[C@H]1O (stereo partly drawn),100 µM
3,OC[C@H]1O[C@@H](n2cnc3cncnc32)[C@H](O)[C@@H]1O [NEBULARINE],10 µM

# The next lines start with the values.
row,Ki,Structure (SMILES)
1,10 µM,OCC1NC=Nc2c1ncn2[C@@H]1O[C@H](CO)[C@@H](O)[C@H]1O (stereo partly drawn)
2,4 µM,O=C1NC=CCN1C1O[C@H](CO)[C@@H](O)[C@H]1O (stereo partly drawn)
3,20 µM,O=C1NC(C(O)O)CCN1C1O[C@H](CO)[C@@H](O)[C@H]1O (stereo partly drawn)
4,0.4 µM,O=C1NC(CO)C=CN1C1O[C@H](CO)[C@@H](O)[C@H]1O (stereo partly drawn)

# Biological target: T1, Adenosine deaminase (Mus musculus, UniProt P03958)
# T1 sequence (P03958 whole entry): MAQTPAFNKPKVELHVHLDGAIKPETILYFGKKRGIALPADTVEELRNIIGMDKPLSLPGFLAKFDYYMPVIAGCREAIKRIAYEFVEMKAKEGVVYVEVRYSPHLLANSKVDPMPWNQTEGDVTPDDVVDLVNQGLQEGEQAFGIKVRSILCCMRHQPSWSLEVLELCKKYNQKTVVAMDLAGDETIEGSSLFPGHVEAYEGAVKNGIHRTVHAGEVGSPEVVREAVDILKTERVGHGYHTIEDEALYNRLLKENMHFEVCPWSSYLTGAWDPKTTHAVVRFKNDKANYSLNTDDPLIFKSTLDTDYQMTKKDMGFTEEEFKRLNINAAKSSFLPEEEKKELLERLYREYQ
# Assay: Compound was tested for the inhibitory constant for adenosine deaminase (ADA)
row,Ki,Structure (SMILES)
1,1 µM,O=c1ncccn1[C@@H]1O[C@H](CO)[C@@H](O)[C@H]1O [ZEBULARINE]
